Data reported in ChEMBL document CHEMBL1201862, “PubChem BioAssay data set” (2004).
Active and inactive are the calls of the source.

Key:
[1] = Luminescent dose response cell-based high throughput screening assay for inhibitors of the Janus kinase 2 mutant JAK2V617F. [Related pubchem assays: 1446 (Primary screen.), 1521 (Confirmation assay.), 1486 (Counter screen.)]; format: functional
[2] = Vero E6 cell cytotoxicity, dose response, cytotoxicity control for non-replicating M. tuberculosis project, secondary assay (AID 492998); format: functional, VeroE6; conditions: Vero C1008
cells [3] = format: functional
[4] = microbe, parasite or virus in culture; format: functional; conditions: Mycobacterium tuberculosis
[5] = biological target: T1, Calpain-2 catalytic subunit (Sus scrofa, UniProt P43367); assay: m-calpain protease blockers, concentration series – biochemical, fluorogenic peptide substrate, dose response (AID 1420); format: functional
T1 sequence (P43367 whole entry): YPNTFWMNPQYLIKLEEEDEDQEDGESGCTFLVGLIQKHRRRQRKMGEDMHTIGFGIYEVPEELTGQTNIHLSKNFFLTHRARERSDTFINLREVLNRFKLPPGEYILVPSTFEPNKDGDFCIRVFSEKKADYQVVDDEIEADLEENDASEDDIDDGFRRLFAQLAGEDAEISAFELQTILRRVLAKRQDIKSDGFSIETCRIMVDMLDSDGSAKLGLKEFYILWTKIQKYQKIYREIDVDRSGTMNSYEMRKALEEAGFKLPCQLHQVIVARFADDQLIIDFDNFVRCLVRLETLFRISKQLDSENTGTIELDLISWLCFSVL

[6] = viability loss in Vero cells – cytotoxicity control for Vif-APOBEC3G degradation inhibitor project, dose response (AID 1117358); format: functional; conditions: Vero
[7] = biological target: Solute carrier family 12 member 2/member 5 (Homo sapiens, UniProt P55011+Q9H2X9); assay: KCC2 and NKCC1 inhibition by rubidium flux, cell-based, NKCC1 counter-screen (AID 1734); format: functional, HEK293
[8] = Trypanosoma cruzi growth suppression in host cells – NIH3T3 host cells, beta-gal luminescence, confirmation (AID 2044); format: functional, cell-based;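 also: intracellular parasites grown in NIH/3T3 mouse fibroblasts as host cells; luminescent beta-galactosidase reporter signal from transgenic T. cruzi replicating inside host cells; inhibitors lower the luminescence signal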
[9] = NIH3T3 cell viability loss – ATP luminescence, mouse fibroblasts, counter-screen, dose response (AID 2010); format: functional, cell-based;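 also: cells exposed to compound for about 90 hours before reading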
cells [10] = assay: cells
Cytochrome P450 2C19 = Cytochrome P450 2C19 (Homo sapiens, UniProt P33261); assay: Cytochrome panel assay with activity outcomes. Panel member name: p450-cyp2c19 Compounds with AC50 equal or less than 10 uM are considered active; format: functional
Chain of Cytochrome P450 2C19 (P33261 whole entry): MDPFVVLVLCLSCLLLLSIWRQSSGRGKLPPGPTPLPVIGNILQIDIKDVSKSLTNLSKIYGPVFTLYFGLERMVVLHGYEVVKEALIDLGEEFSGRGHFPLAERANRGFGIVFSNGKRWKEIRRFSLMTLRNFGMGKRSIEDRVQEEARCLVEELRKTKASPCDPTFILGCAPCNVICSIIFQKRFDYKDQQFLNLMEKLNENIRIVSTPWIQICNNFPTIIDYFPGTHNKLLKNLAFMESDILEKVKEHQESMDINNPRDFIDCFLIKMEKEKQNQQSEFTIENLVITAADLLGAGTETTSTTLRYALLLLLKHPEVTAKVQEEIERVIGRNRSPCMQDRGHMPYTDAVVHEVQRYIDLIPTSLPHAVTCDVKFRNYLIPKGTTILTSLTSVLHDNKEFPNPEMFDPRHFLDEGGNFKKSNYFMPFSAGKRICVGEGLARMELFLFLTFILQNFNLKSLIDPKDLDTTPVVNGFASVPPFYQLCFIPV

[11] = biological target: E3 ubiquitin-protein ligase Mdm2 (Homo sapiens, UniProt Q00987); assay: MDM2-luc reporter signal enhancers, multi-concentration potency testing, MDM2 ubiquitin-protein ligase inhibitor program, whole-cell format, luminescence detection, 384-well microplate (AID 1394); format: functional;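 also: MDM2 E3 inhibitors raise luminescence so EC50 is for signal enhancement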
[12] = biological target: T2, Tyrosine-protein phosphatase non-receptor type 7 (Homo sapiens, UniProt P35236); assay: HePTP tyrosine phosphatase activity blockers – biochemical, absorbance, leukemia target, primary screen (AID 521); format: functional
T2 sequence (P35236 whole entry): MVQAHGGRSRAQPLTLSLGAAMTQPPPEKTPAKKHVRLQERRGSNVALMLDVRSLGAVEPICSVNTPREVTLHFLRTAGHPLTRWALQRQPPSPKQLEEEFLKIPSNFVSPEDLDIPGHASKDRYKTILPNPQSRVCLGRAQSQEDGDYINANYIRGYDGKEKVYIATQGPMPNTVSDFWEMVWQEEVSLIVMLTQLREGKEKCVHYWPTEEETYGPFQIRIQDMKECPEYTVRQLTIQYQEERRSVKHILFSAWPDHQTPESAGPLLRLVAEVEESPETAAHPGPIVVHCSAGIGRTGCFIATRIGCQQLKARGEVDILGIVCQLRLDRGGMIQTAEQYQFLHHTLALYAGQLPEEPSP

[13] = Luminescence Cell-Based Dose Response to Identify Activators of 5'UTR Stem-Loop Driven Prion Protein mRNA Translation in H4-C Neuroglioblastoma Cells. [Related pubchem assays: 1829 (Project Summary), 1814 (Primary HTS)]; format: functional
[14] = Luminescence Cell-Based Dose Response to Identify Activators of Luciferase Translation or Activity in H4-C Neuroglioblastoma Cells. [Related pubchem assays: 1829 (Project Summary), 1814 (Primary HTS)]; format: functional
[15] = Luminescence Cell-Based Dose Confirmation HTS to Identify Activators of 5'UTR Stem-Loop Driven Alpha-Synuclein mRNA Translation in H4 Neuroglioblastoma Cells. [Related pubchem assays: 1829 (Project Summary), 1814 (Primary HTS)]; format: functional
[16] = Luminescence Cell-Based Dose Response HTS to Identify Activators of Luciferase Translation or Activity in H4 […] Cells. [Related pubchem assays: 1829 (Project Summary), 1814 (Primary HTS)]; format: functional
[17] = Luminescence Cell-Based Dose Confirmation to Identify Activators of 5'UTR Stem-Loop Driven Alpha-Synuclein mRNA Translation in H4 Neuroglioblastoma Cells. [Related pubchem assays: 1829 (Project Summary), 1814 (Primary HTS)]; format: functional
[18] = biological target: T3, Induced myeloid leukemia cell differentiation protein Mcl-1 (Homo sapiens, UniProt Q07820); assay: blockers of MCL1 binding to BIM peptide – biochemical, fluorescence polarization, BIM-BH3 peptide, 1536-well, dose response (AID 2217)
T3 sequence (Q07820 whole entry): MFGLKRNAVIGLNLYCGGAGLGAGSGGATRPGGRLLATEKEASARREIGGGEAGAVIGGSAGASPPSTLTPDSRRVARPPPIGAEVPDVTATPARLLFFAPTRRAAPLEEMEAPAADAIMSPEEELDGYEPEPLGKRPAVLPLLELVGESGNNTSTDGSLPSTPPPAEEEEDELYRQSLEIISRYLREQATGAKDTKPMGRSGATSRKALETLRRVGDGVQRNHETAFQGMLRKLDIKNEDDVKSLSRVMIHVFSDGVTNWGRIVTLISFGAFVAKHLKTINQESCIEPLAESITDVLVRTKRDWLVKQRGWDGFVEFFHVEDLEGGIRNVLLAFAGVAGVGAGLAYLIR

Genome polyprotein = Genome polyprotein (Hepatitis C virus, UniProt Q2Q167); assay: disruption of hepatitis C core self-association – biochemical, TR-FRET, dose response (AID 2159); design: species or system Hepacivirus hominis;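 also: blocks dimerization of HCV core protein measured by TR-FRET between tagged core106 pairs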
Chain of Genome polyprotein (Q2Q167 whole entry): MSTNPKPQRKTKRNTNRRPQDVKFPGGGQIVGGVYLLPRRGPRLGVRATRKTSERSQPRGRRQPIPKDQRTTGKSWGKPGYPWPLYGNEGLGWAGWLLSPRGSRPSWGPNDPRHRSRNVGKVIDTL

SUMO E1/E2 = SUMO E1/E2 (Homo sapiens, UniProt P63279+Q9UBE0+Q9UBT2); assay: SAR analysis of SUMOylation using HTRF in an in-Vitro dose response assay. [Related pubchem assays (depositor defined):AID2006, AID2011, AID2018, AID2069, AID2658]; format: functional
Estrogen receptor beta [19] = biological target: T4, Estrogen receptor beta (Homo sapiens, UniProt Q92731);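 also: recombinant ER-beta bound to coactivator SRC1 peptide in presence of estradiol agonist; inhibitors block coactivator peptide binding and lower the FRET signal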
T4 sequence (Q92731 whole entry): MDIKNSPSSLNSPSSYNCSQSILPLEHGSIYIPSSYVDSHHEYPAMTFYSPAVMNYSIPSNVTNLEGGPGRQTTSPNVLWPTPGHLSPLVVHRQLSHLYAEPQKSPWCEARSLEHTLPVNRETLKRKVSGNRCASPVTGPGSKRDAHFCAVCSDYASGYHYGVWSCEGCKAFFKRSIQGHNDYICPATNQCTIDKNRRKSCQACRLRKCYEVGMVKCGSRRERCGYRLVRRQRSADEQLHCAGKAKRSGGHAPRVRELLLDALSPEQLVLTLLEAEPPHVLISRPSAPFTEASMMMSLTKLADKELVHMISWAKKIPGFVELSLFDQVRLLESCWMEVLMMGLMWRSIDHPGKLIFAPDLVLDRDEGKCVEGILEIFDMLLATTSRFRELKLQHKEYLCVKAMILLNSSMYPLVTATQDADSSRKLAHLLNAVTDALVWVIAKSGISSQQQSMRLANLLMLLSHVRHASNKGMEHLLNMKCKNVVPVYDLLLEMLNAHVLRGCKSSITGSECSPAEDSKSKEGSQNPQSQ

[20] = biological target: T5, Voltage-gated N-type calcium channel alpha-1B subunit/Amyloid beta A4 precursor protein-binding family A member 1 (Homo sapiens, UniProt Q00975+Q02410); assay: disruptors of Mint-PDZ/N-type channel peptide interaction – biochemical, HTRF, SAR follow-up (AID 2489); format: functional
T5 sequence (Q00975 whole entry): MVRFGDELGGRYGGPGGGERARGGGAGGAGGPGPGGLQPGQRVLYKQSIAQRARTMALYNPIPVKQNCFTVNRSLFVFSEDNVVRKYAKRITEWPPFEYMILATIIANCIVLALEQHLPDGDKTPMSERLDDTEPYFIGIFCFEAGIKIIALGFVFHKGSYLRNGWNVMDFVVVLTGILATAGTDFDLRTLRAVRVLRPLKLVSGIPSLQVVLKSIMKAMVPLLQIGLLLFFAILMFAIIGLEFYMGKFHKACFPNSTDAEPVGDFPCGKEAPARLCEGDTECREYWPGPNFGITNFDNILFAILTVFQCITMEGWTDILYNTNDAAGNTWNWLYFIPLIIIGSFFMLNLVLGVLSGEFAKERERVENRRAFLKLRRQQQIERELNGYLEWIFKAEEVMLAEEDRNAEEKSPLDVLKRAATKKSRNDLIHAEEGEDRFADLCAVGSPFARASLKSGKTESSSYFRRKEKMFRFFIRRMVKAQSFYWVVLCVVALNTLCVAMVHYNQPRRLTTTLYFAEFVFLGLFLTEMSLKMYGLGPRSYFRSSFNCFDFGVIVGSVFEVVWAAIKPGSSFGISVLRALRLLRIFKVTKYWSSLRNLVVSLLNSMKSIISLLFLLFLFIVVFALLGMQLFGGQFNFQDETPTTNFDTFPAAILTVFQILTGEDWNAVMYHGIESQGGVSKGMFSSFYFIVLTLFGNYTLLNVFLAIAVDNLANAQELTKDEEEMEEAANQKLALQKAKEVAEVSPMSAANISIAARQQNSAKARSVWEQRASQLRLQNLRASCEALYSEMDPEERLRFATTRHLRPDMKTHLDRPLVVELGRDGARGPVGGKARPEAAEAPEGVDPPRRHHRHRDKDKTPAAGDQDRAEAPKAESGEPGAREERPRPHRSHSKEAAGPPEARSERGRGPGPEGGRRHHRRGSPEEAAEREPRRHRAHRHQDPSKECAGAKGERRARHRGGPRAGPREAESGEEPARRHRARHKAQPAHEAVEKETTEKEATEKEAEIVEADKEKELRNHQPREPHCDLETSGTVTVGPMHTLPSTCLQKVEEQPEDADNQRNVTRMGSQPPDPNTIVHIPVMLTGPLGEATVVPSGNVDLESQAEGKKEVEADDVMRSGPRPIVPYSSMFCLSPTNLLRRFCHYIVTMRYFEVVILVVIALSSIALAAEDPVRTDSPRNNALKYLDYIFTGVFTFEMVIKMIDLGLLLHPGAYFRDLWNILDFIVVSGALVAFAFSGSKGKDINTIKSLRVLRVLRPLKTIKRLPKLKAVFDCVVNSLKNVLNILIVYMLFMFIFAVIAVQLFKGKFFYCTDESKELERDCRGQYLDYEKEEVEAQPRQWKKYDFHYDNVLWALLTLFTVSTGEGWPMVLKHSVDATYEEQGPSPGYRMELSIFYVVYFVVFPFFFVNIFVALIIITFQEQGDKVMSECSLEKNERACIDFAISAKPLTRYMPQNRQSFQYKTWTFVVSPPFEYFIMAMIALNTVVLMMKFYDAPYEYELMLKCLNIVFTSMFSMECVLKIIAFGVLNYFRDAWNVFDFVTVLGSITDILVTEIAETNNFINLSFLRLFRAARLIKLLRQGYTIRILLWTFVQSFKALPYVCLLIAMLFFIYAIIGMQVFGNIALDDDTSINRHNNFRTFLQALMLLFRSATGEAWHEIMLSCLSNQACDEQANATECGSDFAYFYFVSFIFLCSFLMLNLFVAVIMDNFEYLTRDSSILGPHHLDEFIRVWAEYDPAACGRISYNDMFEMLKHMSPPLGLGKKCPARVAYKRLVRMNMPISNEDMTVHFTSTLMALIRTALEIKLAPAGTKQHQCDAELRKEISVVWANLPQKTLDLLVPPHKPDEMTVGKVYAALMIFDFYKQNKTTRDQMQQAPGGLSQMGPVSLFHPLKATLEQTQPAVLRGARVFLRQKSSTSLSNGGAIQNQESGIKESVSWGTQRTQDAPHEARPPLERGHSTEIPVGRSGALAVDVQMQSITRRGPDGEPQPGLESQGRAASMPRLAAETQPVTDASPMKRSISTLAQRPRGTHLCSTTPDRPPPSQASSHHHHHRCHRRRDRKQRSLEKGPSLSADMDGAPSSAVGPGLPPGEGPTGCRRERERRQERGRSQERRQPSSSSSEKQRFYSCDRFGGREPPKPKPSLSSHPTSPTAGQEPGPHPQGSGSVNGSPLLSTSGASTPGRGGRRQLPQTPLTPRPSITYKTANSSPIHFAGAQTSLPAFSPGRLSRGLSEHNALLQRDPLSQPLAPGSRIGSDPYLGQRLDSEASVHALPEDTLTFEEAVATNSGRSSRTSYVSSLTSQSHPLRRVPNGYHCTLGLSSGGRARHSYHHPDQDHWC
T5 sequence (Q02410 whole entry): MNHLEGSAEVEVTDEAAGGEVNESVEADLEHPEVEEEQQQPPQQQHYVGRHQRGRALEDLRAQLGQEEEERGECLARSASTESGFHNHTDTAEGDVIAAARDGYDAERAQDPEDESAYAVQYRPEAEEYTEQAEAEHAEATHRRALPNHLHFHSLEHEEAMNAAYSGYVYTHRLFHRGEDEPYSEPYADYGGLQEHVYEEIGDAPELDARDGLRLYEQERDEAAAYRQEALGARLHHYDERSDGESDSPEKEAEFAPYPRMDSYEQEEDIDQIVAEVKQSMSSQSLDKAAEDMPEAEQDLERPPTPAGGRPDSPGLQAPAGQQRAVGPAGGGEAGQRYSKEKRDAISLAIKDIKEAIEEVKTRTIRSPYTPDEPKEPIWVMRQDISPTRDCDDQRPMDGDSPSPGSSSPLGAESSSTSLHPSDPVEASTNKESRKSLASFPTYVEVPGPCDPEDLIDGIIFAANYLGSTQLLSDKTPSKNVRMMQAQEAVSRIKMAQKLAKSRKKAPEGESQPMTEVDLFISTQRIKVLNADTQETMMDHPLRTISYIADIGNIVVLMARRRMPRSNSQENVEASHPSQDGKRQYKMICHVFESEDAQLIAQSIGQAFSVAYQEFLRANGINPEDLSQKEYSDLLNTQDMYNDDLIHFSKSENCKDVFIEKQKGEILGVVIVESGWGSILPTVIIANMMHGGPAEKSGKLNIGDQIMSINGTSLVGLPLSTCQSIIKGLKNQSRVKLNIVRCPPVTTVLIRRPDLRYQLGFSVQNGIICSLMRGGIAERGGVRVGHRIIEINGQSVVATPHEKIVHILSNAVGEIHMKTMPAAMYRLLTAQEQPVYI

Bcl-2-like protein 10 = Bcl-2-like protein 10 (Homo sapiens, UniProt Q9HD36); assay: Bcl-B/TR3 peptide binding disruption – biochemical, fluorescence polarization, FITC-TR3 peptide, selectivity assay for Bfl-1 inhibitor project, primary screen (AID 748);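 also: fluorescence polarization from a fluorescein-labelled TR3 peptide binding purified Bcl-B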
[21] = A Cell Based Secondary Assay To Explore Cytotoxicity of Compounds that Sensitize Mycobacterium Tuberculosis to Beta-Lactam Antibiotics.; format: functional
[22] = biological target: T3, Induced myeloid leukemia cell differentiation protein Mcl-1; format: functional
Estrogen receptor beta [23] = biological target: T4, Estrogen receptor beta; assay: blockers of SRC-3 recruitment to ERβ – biochemical, ELISA, streptavidin-HRP readout, orthogonal assay, confirmation (AID 1060)
Bcl-2-like protein 1 = Bcl-2-like protein 1 (Homo sapiens, UniProt Q07817); assay: blockers of BCLXL peptide binding – biochemical, fluorescence polarization, 1536-well, selectivity assay for MCL1 inhibitor project, dose response (AID 2218)
Chain of Bcl-2-like protein 1 (Q07817 whole entry): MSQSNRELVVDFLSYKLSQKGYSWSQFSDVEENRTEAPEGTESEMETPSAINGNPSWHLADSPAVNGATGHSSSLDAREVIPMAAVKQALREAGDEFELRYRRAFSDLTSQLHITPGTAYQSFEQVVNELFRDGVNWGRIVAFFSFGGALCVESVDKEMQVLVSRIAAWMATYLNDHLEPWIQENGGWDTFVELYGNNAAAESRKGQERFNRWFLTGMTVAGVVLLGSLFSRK

[24] = biological target: T5, Voltage-gated N-type calcium channel alpha-1B subunit/Amyloid beta A4 precursor protein-binding family A member 1; assay: disruptors of Mint-PDZ/N-type channel peptide interaction – biochemical, HTRF, set 2, SAR follow-up (AID 434980); format: functional
[25] = A High Throughput Confirmatory Assay used to Identify Novel Compounds that Inhibit Mycobacterium Tuberculosis in the absence of Glycerol.; format: functional
[26] = luciferase reporter signal suppression in cells – H4 neuroglioma cells, luminescence, dose response (AID 1990); format: functional, cell-based
[27] = Luminescence Cell-Based Dose Response HTS to Identify Inhibitors of 5'UTR Stem-Loop Driven Prion Protein mRNA Translation in H4 Neuroglioblastoma Cells. [Related pubchem assays: 1827 (Project Summary), 1813 (Primary HTS)]; format: functional
[28] = alpha-synuclein stem-loop luciferase translation blockers – H4 neuroglioma cells, luminescence, confirmation (AID 1988); format: functional, cell-based
Prothrombin = Prothrombin (Homo sapiens, UniProt P00734); assay: Thrombin 1536 HTS Dose Response Confirmation. [Related pubchem assays: 1046 (Thrombin 1536 HTS; hits were confirmed in this assay)]; format: functional
[29] = biological target: T6, Heat shock factor protein 1 (Mus musculus, UniProt P38532); assay: decrease of HSF1-responsive luciferase luminescence – cell-based, NIH3T3, dose retest, confirmation (AID 2382); format: functional;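 also: NIH3T3 fibroblasts with HSF1-driven luciferase reporter stressed by proteasome inhibitor MG132; luminescence from HSF1-driven luciferase expression after 8 hours of MG132 stress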
T6 sequence (P38532 whole entry): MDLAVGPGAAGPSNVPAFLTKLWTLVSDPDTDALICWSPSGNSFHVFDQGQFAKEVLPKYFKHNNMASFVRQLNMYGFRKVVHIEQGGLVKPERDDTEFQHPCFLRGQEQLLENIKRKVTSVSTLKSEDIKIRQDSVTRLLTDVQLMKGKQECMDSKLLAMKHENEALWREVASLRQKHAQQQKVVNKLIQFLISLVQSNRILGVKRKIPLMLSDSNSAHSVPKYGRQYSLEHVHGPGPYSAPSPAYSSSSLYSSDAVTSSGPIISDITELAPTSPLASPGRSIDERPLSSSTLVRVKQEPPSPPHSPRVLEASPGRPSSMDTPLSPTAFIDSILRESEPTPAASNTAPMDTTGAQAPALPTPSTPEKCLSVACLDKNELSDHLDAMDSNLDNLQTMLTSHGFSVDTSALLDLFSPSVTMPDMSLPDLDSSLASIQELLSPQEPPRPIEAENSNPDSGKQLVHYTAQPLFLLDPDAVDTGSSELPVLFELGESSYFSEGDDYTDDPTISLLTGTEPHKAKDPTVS

[30] = biological target: T7, Microphthalmia-associated transcription factor (Homo sapiens, UniProt O75030); assay: reducers of TRPM1 reporter luminescence, concentration series – cell-based, SK-MEL-5, cherry-picked, set 3, MITF inhibitor project, dose response (AID 493073); format: functional;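 also: SK-MEL-5 melanoma cells with luciferase driven by the MITF target TRPM1 promoter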
T7 sequence (O75030 whole entry): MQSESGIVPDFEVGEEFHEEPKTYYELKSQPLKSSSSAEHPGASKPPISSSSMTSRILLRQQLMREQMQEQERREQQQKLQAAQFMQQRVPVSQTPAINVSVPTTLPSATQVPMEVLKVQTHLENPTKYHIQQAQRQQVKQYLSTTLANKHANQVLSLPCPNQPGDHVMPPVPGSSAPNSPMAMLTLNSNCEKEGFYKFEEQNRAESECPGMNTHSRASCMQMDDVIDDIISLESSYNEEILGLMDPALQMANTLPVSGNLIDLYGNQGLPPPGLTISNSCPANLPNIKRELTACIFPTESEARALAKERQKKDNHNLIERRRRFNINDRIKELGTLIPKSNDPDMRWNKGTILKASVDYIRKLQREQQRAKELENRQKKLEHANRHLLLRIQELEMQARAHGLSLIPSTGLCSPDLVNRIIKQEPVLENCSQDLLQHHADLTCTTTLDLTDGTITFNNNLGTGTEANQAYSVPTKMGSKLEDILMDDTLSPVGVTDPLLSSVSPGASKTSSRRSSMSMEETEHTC

[31] = biological target: Heat shock protein HSP 90-alpha (Homo sapiens, UniProt P07900); assay: Luminescence-based dose response biochemical high throughput screening assay for inhibitors of the Heat Shock Protein 90 (HSP90). [Related pubchem assays: 1831 (Summary AID.), 1846 (Confirmation screen.), 1789 (Primary screen.)]

O=C(O)c1[nH]c(=O)[nH]c(=O)c1F
IC50 [1]: 4.12 µM (active)
CC50 [2]: > 20 µM (active)
IC50 (cells [3]): 5.96 µM (active)
CC50 [4]: > 40 µM (active)

Cc1ccc(Cl)cc1N1CCN(C(=O)Cc2cn(C)c3ccccc23)CC1
IC50 [5]: 6.39 µM (not active)
CC50 [6]: > 40 µM (active)

CCCn1c(N)c(C(=O)CSc2nnc(Cc3ccccc3)o2)c(=O)n(C)c1=O
IC50 [7]: 1.6 µM (active)

Cc1c(O)ccc2c(CN3CCN(Cc4ccccc4)CC3)cc(=O)oc12
EC50 [8]: < 0.1 µM (active)
EC50 [9]: > 60 µM (not active)
EC50 (cells [10]): 0.024 µM (active)

CCN1CCN(C(=O)CCc2nc3ccccc3c(=O)[nH]2)CC1
AC50 (Cytochrome P450 2C19): inconclusive
EC50 [11]: 12.5 µM (not active)

O=C(Nc1cc(C(F)(F)F)ccc1Cl)C1CCN(c2nnc(-n3cccc3)s2)CC1
IC50 [12]: > 100 µM (not active)

O=C(NC1CCCCCC1)c1ccc(CN2CCOCC2)cc1
EC50 [13]: 0.889 µM (active)
EC50 [14]: 0.67 µM (active)
EC50 [15]: < 0.1 µM (active)
EC50 [16]: 17.5 µM (active)
EC50 [17]: 0.406 µM (active)

O=C(OCC(=O)N1CCN(C(=O)c2ccco2)CC1)c1cc(-c2ccco2)nc2ccccc12
IC50 [18]: 6.8 µM (active)
IC50 (Genome polyprotein): > 49.8 µM (not active)
IC50 (SUMO E1/E2): 1.93 µM (active)
IC50 (Estrogen receptor beta [19]): < 1.56 µM (active)
IC50 [20]: 5.92 µM (active)
IC50 (Bcl-2-like protein 10): 12 µM (active)
CC50 [21]: > 40 µM (active)
IC50 [22]: 3.96 µM (active)
IC50 (Estrogen receptor beta [23]): > 50 µM (not active)
IC50 (Bcl-2-like protein 1): > 109 µM (not active)
IC50 [24]: 2.86 µM (active)

CC(C)CNc1nnnc2c1sc1nc(N3CCOCC3)c3c(c12)CC(C)(C)SC3
IC50 [25]: > 100 µM (active)
EC50 [26]: 19.2 µM (active)
EC50 [27]: 35.1 µM (active)
EC50 [28]: 14.3 µM (active)
CC50 [4]: > 40 µM (active)

Cc1ccc2nc(NC(=O)CSCC(=O)OCC(=O)c3ccccc3)sc2c1
IC50 (Prothrombin): 0.0897 µM (active)
EC50 [29]: 1.05 µM (active)
AC50 [30]: 5.78 µM (active)
IC50 [31]: 5.17 µM (active)
